Measured values published in US7718684B2, “Methods and materials for assessing prostate cancer therapies and compounds” (The Regents of the University of California, priority 2004, dated 2010).

Assays:
[1] = tested on: prostate-specific antigen (PSA) produced by LNCaP cells; assay: PSA produced by LNCaP cells; format: cell-based, human
AR LBD = conditions: cited from earlier work
LNCaP-AR cells [2] = assay: In vitro growth of LNCaP-AR cells (low androgen / bicalutamide)
[3] = target: AR transcription complex on the promoters of PSA and KLK2 in LNCaP cells (Homo sapiens, UniProt P10275, T878A)
Sequence of AR transcription complex on the promoters of PSA and KLK2 in LNCaP cells (P10275 whole entry T878A, one chain of several): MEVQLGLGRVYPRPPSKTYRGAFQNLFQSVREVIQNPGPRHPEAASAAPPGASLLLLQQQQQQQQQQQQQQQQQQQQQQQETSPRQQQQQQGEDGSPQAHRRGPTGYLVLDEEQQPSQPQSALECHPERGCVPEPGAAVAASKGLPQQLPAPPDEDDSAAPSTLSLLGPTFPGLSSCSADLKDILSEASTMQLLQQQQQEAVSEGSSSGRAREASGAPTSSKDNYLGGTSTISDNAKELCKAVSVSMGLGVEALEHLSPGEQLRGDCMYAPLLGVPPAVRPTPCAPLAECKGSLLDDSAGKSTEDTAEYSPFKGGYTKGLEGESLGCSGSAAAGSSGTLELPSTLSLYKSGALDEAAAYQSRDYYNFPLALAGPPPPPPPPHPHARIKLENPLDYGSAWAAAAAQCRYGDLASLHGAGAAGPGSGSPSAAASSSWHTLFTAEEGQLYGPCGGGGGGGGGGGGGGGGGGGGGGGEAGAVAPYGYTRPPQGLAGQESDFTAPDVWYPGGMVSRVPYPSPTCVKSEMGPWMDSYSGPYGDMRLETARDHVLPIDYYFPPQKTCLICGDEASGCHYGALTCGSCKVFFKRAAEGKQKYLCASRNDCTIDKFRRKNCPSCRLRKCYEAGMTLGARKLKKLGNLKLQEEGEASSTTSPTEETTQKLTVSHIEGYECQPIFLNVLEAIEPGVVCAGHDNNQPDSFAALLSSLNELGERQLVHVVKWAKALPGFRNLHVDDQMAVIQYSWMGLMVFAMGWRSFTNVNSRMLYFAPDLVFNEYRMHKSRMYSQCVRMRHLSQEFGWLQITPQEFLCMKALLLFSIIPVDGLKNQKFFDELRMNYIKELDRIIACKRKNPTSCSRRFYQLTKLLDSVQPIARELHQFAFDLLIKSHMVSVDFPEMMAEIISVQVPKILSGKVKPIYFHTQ

[4] = tested on: LNCaP cells infected with the empty vector; assay: In vitro growth of LNCaP vector cells in low androgen; format: cell-based, human; conditions: steroid-depleted
LNCaP-AR cells [5] = assay: Microarray of induced genes in LNCaP-AR cells; format: cell-based, human
[6] = tested on: PSA mRNA and protein expression in parental LAPC4 cells; assay: PSA expression in parental LAPC4 cells; conditions: androgen-starved
[7] = tested on: LNCaP cells infected with the empty-vector control; assay: Microarray of induced genes in LNCaP control cells; format: cell-based, human; conditions: 10 μM
[8] = tested on: PSA expression in LAPC4 cells expressing increased levels of AR; assay: PSA expression in LAPC4 cells with increased AR; conditions: androgen-starved

CC1(C)C(=O)N(c2ccc(C#N)c(C(F)(F)F)c2)C(=S)N1c1ccc(N=[N+]=[N-])cc1 [Compound 5]
antagonist character ([1]; LNCaP cells, PSA): full antagonists
IC50 for PSA expression compared with bicalutamide ([1]; LNCaP cells, relative to bicalutamide): ten-fold lower
agonist and antagonist effects ([1]; initial screening and biological testing): best antagonist effects without any strong agonist effects

CC1(C)C(=O)N(c2ccc(C#N)c(C(F)(F)F)c2)C(=S)N1CCCCO [RU59063]
binding to AR LBD compared with drugs such as bicalutamide (AR LBD): more potent binders of the AR LBD

C[C@]1(O)CC[C@H]2[C@@H]3CCC4=CC(=O)CCC4=C3C=C[C@@]21C [Compound R1881, R1881]
lower concentration supporting growth versus vector cells (LNCaP-AR cells [2]; charcoal-stripped serum, relative to vector cells): at least 80%
recruitment of AR and polymerase II to promoters [3]: AR and polymerase II were recruited to both promoters regardless of AR level
concentration needed for growth in charcoal-stripped serum [4]: 100 pM

CC(O)(CS(=O)(=O)c1ccc(F)cc1)C(=O)Nc1ccc(C#N)c(C(F)(F)F)c1 (stereo not shown) [bicalutamide]
probe sets induced (LNCaP-AR cells [5]; 10 μM, 2-fold increase, P<0.05, 500 minimum expression): 48 probe sets
subset of total androgen-regulated genes induced (LNCaP-AR cells [5]; of >600 androgen-regulated probe sets): < 10%
growth in the presence of the antiandrogen (LNCaP-AR cells [2]; LNCaP-AR cells): resistant
effect on PSA mRNA and protein expression [6]: typical antagonist activity
probe sets induced [7]: no elements were significantly upregulated
effect on PSA expression [8]: functioned as an agonist
